Laboratory results published in the supplement of paper PMC10307832.

How the values were obtained:
Assay in all cases: relative viability (nuclei count vs DMSO), 5 days (fraction); higher = more cells survive
Ispinesib + AZD7762 = compound: Cc1ccc(C(=O)N(CCCN)[C@@H](c2nc3cc(Cl)ccc3c(=O)n2Cc2ccccc2)C(C)C)cc1 [Ispinesib] + NC(=O)Nc1cc(-c2cccc(F)c2)sc1C(=O)N[C@H]1CCCNC1 [AZD7762] (partner 0.2 µM)
Procedure, shortened: (§1)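 Each reported value is a median over duplicate plates. It expresses relative viability: treated-well nuclei count divided by vehicle-well nuclei count. Lung cancer cell lines in 1536-well plates were dosed by pin tool a day after seeding, alone with one drug or with a fixed anchor-drug dose plus five library-drug doses (not always all listed) in √10 steps, and nuclei were counted after 5 days.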

Linsitinib + Lapatinib = compound: C[C@]1(O)C[C@@H](c2nc(-c3ccc4ccc(-c5ccccc5)nc4c3)c3c(N)nccn32)C1 [Linsitinib] + CS(=O)(=O)CCNCc1ccc(-c2ccc3ncnc(Nc4ccc(OCc5cccc(F)c5)c(Cl)c4)c3c2)o1 [Lapatinib] (partner 2 µM)
Procedure, shortened: as §1

Ispinesib + Crizotinib = compound: Cc1ccc(C(=O)N(CCCN)[C@@H](c2nc3cc(Cl)ccc3c(=O)n2Cc2ccccc2)C(C)C)cc1 [Ispinesib] + C[C@@H](Oc1cc(-c2cnn(C3CCNCC3)c2)cnc1N)c1c(Cl)ccc(F)c1Cl [Crizotinib] (partner 1 µM)
Procedure, shortened: as §1

Ispinesib + Navitoclax = compound: Cc1ccc(C(=O)N(CCCN)[C@@H](c2nc3cc(Cl)ccc3c(=O)n2Cc2ccccc2)C(C)C)cc1 [Ispinesib] + CC1(C)CCC(c2ccc(Cl)cc2)=C(CN2CCN(c3ccc(C(=O)NS(=O)(=O)c4ccc(N[C@H](CCN5CCOCC5)CSc5ccccc5)c(S(=O)(=O)C(F)(F)F)c4)cc3)CC2)C1 [Navitoclax] (partner 0.5 µM)
Procedure, shortened: as §1

NCI-H2405
relative viability (Ispinesib + AZD7762; first compound 0.001 µM): 0.867
relative viability (Ispinesib + AZD7762; first compound 0.003162 µM): 0.791
relative viability (Ispinesib + AZD7762; first compound 0.01 µM): 0.73
relative viability (Ispinesib + AZD7762; first compound 0.03162 µM): 0.711
relative viability (Ispinesib + AZD7762; first compound 0.1 µM): 0.363
relative viability (Linsitinib + Lapatinib; first compound 0.01 µM): 1.12
relative viability (Linsitinib + Lapatinib; first compound 0.03162 µM): 1.04
relative viability (Linsitinib + Lapatinib; first compound 0.1 µM): 1.07
relative viability (Linsitinib + Lapatinib; first compound 0.3162 µM): 0.887
relative viability (Linsitinib + Lapatinib; first compound 1 µM): 0.735
relative viability (Ispinesib + Crizotinib; first compound 0.001 µM): 0.846
relative viability (Ispinesib + Crizotinib; first compound 0.003162 µM): 0.859
relative viability (Ispinesib + Crizotinib; first compound 0.01 µM): 0.919
relative viability (Ispinesib + Crizotinib; first compound 0.03162 µM): 0.835
relative viability (Ispinesib + Crizotinib; first compound 0.1 µM): 0.406
relative viability (Ispinesib + Navitoclax; first compound 0.001 µM): 0.884
relative viability (Ispinesib + Navitoclax; first compound 0.003162 µM): 0.72
relative viability (Ispinesib + Navitoclax; first compound 0.01 µM): 0.942
relative viability (Ispinesib + Navitoclax; first compound 0.03162 µM): 0.779
relative viability (Ispinesib + Navitoclax; first compound 0.1 µM): 0.276

NCI-H3122
relative viability (Ispinesib + AZD7762; first compound 0.001 µM): 0.996
relative viability (Ispinesib + AZD7762; first compound 0.003162 µM): 0.982
relative viability (Ispinesib + AZD7762; first compound 0.01 µM): 1.15
relative viability (Ispinesib + AZD7762; first compound 0.03162 µM): 0.835
relative viability (Ispinesib + AZD7762; first compound 0.1 µM): 0.141
relative viability (Linsitinib + Lapatinib; first compound 0.01 µM): 1.04
relative viability (Linsitinib + Lapatinib; first compound 0.03162 µM): 1.06
relative viability (Linsitinib + Lapatinib; first compound 0.1 µM): 0.982
relative viability (Linsitinib + Lapatinib; first compound 0.3162 µM): 0.737
relative viability (Linsitinib + Lapatinib; first compound 1 µM): 1.12
relative viability (Ispinesib + Crizotinib; first compound 0.001 µM): 0.28
relative viability (Ispinesib + Crizotinib; first compound 0.003162 µM): 0.27
relative viability (Ispinesib + Crizotinib; first compound 0.01 µM): 0.274
relative viability (Ispinesib + Crizotinib; first compound 0.03162 µM): 0.314
relative viability (Ispinesib + Crizotinib; first compound 0.1 µM): 0.202
relative viability (Ispinesib + Navitoclax; first compound 0.001 µM): 1.1
relative viability (Ispinesib + Navitoclax; first compound 0.003162 µM): 1.06
relative viability (Ispinesib + Navitoclax; first compound 0.01 µM): 1.06
relative viability (Ispinesib + Navitoclax; first compound 0.03162 µM): 1.07
relative viability (Ispinesib + Navitoclax; first compound 0.1 µM): 0.199

PC-3 [JPC-3]
relative viability (Ispinesib + AZD7762; first compound 0.001 µM): 0.937
relative viability (Ispinesib + AZD7762; first compound 0.003162 µM): 0.9
relative viability (Ispinesib + AZD7762; first compound 0.01 µM): 0.798
relative viability (Ispinesib + AZD7762; first compound 0.03162 µM): 0.542
relative viability (Ispinesib + AZD7762; first compound 0.1 µM): 0.368
relative viability (Linsitinib + Lapatinib; first compound 0.01 µM): 0.43
relative viability (Linsitinib + Lapatinib; first compound 0.03162 µM): 0.455
relative viability (Linsitinib + Lapatinib; first compound 0.1 µM): 0.405
relative viability (Linsitinib + Lapatinib; first compound 0.3162 µM): 0.369
relative viability (Linsitinib + Lapatinib; first compound 1 µM): 0.373
relative viability (Ispinesib + Crizotinib; first compound 0.001 µM): 0.906
relative viability (Ispinesib + Crizotinib; first compound 0.003162 µM): 1.04
relative viability (Ispinesib + Crizotinib; first compound 0.01 µM): 1.11
relative viability (Ispinesib + Crizotinib; first compound 0.03162 µM): 1.04
relative viability (Ispinesib + Crizotinib; first compound 0.1 µM): 0.913
relative viability (Ispinesib + Navitoclax; first compound 0.001 µM): 0.826
relative viability (Ispinesib + Navitoclax; first compound 0.003162 µM): 0.875
relative viability (Ispinesib + Navitoclax; first compound 0.01 µM): 0.782
relative viability (Ispinesib + Navitoclax; first compound 0.03162 µM): 0.797
relative viability (Ispinesib + Navitoclax; first compound 0.1 µM): 0.784

PC-14
relative viability (Ispinesib + AZD7762; first compound 0.001 µM): 0.44
relative viability (Ispinesib + AZD7762; first compound 0.003162 µM): 0.484
relative viability (Ispinesib + AZD7762; first compound 0.01 µM): 0.388
relative viability (Ispinesib + AZD7762; first compound 0.03162 µM): 0.142
relative viability (Ispinesib + AZD7762; first compound 0.1 µM): 0.111
relative viability (Linsitinib + Lapatinib; first compound 0.01 µM): 0.281
relative viability (Linsitinib + Lapatinib; first compound 0.03162 µM): 0.301
relative viability (Linsitinib + Lapatinib; first compound 0.1 µM): 0.303
relative viability (Linsitinib + Lapatinib; first compound 0.3162 µM): 0.31
relative viability (Linsitinib + Lapatinib; first compound 1 µM): 0.257
relative viability (Ispinesib + Crizotinib; first compound 0.001 µM): 0.967
relative viability (Ispinesib + Crizotinib; first compound 0.003162 µM): 0.971
relative viability (Ispinesib + Crizotinib; first compound 0.01 µM): 1.07
relative viability (Ispinesib + Crizotinib; first compound 0.03162 µM): 0.873
relative viability (Ispinesib + Crizotinib; first compound 0.1 µM): 0.232
relative viability (Ispinesib + Navitoclax; first compound 0.001 µM): 1.13
relative viability (Ispinesib + Navitoclax; first compound 0.003162 µM): 1.14
relative viability (Ispinesib + Navitoclax; first compound 0.01 µM): 1.22
relative viability (Ispinesib + Navitoclax; first compound 0.03162 µM): 0.43
relative viability (Ispinesib + Navitoclax; first compound 0.1 µM): 0.104

RERF-LC-KJ
relative viability (Ispinesib + AZD7762; first compound 0.001 µM): 0.88
relative viability (Ispinesib + AZD7762; first compound 0.003162 µM): 1.1
relative viability (Ispinesib + AZD7762; first compound 0.01 µM): 1.07
relative viability (Ispinesib + AZD7762; first compound 0.03162 µM): 0.701
relative viability (Ispinesib + AZD7762; first compound 0.1 µM): 0.243
relative viability (Linsitinib + Lapatinib; first compound 0.01 µM): 0.8
relative viability (Linsitinib + Lapatinib; first compound 0.03162 µM): 0.846
relative viability (Linsitinib + Lapatinib; first compound 0.1 µM): 0.826
relative viability (Linsitinib + Lapatinib; first compound 0.3162 µM): 0.554
relative viability (Linsitinib + Lapatinib; first compound 1 µM): 0.645
relative viability (Ispinesib + Crizotinib; first compound 0.001 µM): 0.884
relative viability (Ispinesib + Crizotinib; first compound 0.003162 µM): 0.83
relative viability (Ispinesib + Crizotinib; first compound 0.01 µM): 0.982
relative viability (Ispinesib + Crizotinib; first compound 0.03162 µM): 0.587
relative viability (Ispinesib + Crizotinib; first compound 0.1 µM): 0.301
relative viability (Ispinesib + Navitoclax; first compound 0.001 µM): 1.17
relative viability (Ispinesib + Navitoclax; first compound 0.003162 µM): 0.997
relative viability (Ispinesib + Navitoclax; first compound 0.01 µM): 1.01
relative viability (Ispinesib + Navitoclax; first compound 0.03162 µM): 0.74
relative viability (Ispinesib + Navitoclax; first compound 0.1 µM): 0.369
